Assay results from the METLIN SMRT retention time set (Domingo-Almenara et al. 2019).

Assay: gradient 5% acetonitrile 3 min, to 50% in 2 min, to 85% in 15 min, held 3 min, 100 µL/min
Conditions: column: Zorbax Extend-C18 2.1 x 50 mm; eluents: water / acetonitrile, 0.1% formic acid
Method in brief: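 Retention times come from adduct peaks that were picked computationally and then checked by hand. The standards, pure and pooled in mixtures of ~100 molecules, were run on a Zorbax Extend-C18 column (2.1 × 50 mm, 1.8 μm) at 100 μL/min with water and acetonitrile, each with 0.1% formic acid. Detection was by quadrupole time-of-flight mass spectrometry in positive and negative ionization mode, with a dead volume of 40 μL and a dwell volume of 900 μL.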

Row | RP-LC retention time | SMILES
1 | 577 s | O=C(NCCN1CCN(C(=O)CSc2nc3ccccc3s2)CC1)c1cccs1
2 | 636 s | CCn1c(C(=O)N2CCN(c3ccccn3)CC2)cc2sccc21
3 | 885 s | COc1ccccc1CNC(=O)CN1C(=O)C2CCCCN2c2ccc(S(=O)(=O)N(C)C)cc21 (centres undefined)
4 | 1020 s | O=C(Nc1nc(-c2ccccc2)cs1)c1c(-c2ccc(F)cc2)nc2n1CCS2(=O)=O
5 | 825 s | CCN(CC)c1ccc(NC(=O)C2CCCN(c3nc4ccccc4nc3C(F)(F)F)C2)c(C)c1 (centres undefined)
6 | 538 s | Cn1cc(NC(=O)N2CCN(c3ccccn3)CC2)c2ccccc2c1=O
7 | 807 s | O=C(Nc1ccc(F)c(Cl)c1)c1cn2c(n1)CSCC2
8 | 1040 s | Cc1cc(NC(=O)C2CCN(S(C)(=O)=O)c3ccccc3O2)ccc1Br (centres undefined)
9 | 646 s | CCOCCCNC(=O)C1CCN(c2cc(Oc3ccc(CC)cc3)ncn2)CC1
10 | 680 s | COCCNC(=O)c1ccc(OC2CCN(CC(c3ccccc3)c3ccccc3)CC2)c(OC)c1
11 | 718 s | COCCNC(=O)NC1CCN(C2=NS(=O)(=O)C(c3cccc(Cl)c3)=C2C)CC1
12 | 706 s | CCN1CCC(N(Cc2ccc3c(c2)OCO3)C(=O)Nc2cc(C)ccc2OC)CC1
13 | 684 s | O=C(NCCCN1CCCCC1)C1CCCN(c2ncc(-c3cccc(F)c3)cn2)C1 (centres undefined)
14 | 590 s | Cc1ccc(-c2cc(C(=O)N3CCN(C4CCN(C)CC4)CC3)n(C)c2)cc1
15 | 628 s | CN(CCOc1ccc(CC2SC(=O)NC2=O)cc1)c1ccccn1 (centres undefined)
16 | 748 s | O=C(C1=CN(c2ccc(F)cc2)c2cc(F)ccc2S1(=O)=O)N1CCCC1
17 | 632 s | O=C(NCCN1CCN(c2ccccc2F)CC1)C1CCCN(c2nc3cccnc3s2)C1 (centres undefined)
18 | 598 s | O=C(NCc1cccnc1)C1CC(=O)N(c2ccc3c(c2)CCN3C(=O)C2CCC2)C1 (centres undefined)
19 | 786 s | COc1ccc(CC(=O)N2CCN(S(=O)(=O)c3cc4c5c(c3)CCC(=O)N5CCC4)CC2)cc1
20 | 734 s | Cc1cc(=O)n(CC(=O)NCCC2=CCCCC2)c(N2CCCCC2)n1

Row | RP-LC retention time | SMILES
21 | 677 s | COc1ccc(-c2nnc(CC(=O)N3CCCC3)o2)cc1
22 | 634 s | O=C(NC1CCN(c2cc(-c3ccc(Cl)cc3)[nH]n2)CC1)c1ccc2nc[nH]c2c1
23 | 691 s | CCCN1C(=O)C(CC(=O)N2CCCC2)Sc2ncccc21 (centres undefined)
24 | 851 s | Cc1ccc(C2=NC3(CCN(C(=O)Nc4cccc(C)c4)CC3)NC2=O)cc1
25 | 660 s | CCN1CCN(c2c(S(=O)(=O)c3ccc(Cl)cc3)cnc3cc4c(cc23)OCCO4)CC1
26 | 1240 s | CCOC(=O)c1cc(C2CC2)nc2c1c(=O)n(Cc1ccccc1C)c(=O)n2C
27 | 624 s | CCCc1cc(N2CCN(C(=O)c3ccsc3)CC2)nc2nnc(CC)n12
28 | 950 s | O=C(Cc1c(F)cccc1Cl)Nc1nc2c(s1)CN(S(=O)(=O)c1ccccc1)CC2
29 | 1060 s | Cc1ccccc1Cn1nc2ccc(S(=O)(=O)N3CCC(C)CC3)cn2c1=O
30 | 620 s | Cn1cc(-c2cc3n(n2)CCCN3C(=O)CCC(=O)NCCCN2CCCC2)c2ccccc21
31 | 1110 s | O=C(NCc1cccs1)c1nc(-c2ccc(N3CCCC3)cc2)no1
32 | 702 s | Cc1ccccc1CNC(=O)C1(C)Oc2cccnc2NC1=O (centres undefined)
33 | 630 s | CCCc1nc2cccnc2n1C1CCN(C(=O)COc2ccccc2)C1 (centres undefined)
34 | 1160 s | CCc1ccc(NC(=O)c2cn(CC3CCCO3)cc3c(=O)n(-c4ccccc4)nc2-3)cc1 (centres undefined)
35 | 949 s | CCN(C(=O)c1ccc(C(C)(C)C)cc1)c1nc(-c2ccccc2)cs1
36 | 627 s | CC(=O)c1ccc(NC(=O)N2C[C@@H]3C[C@H](NC(=O)c4cccnc4)[C@H]2C3)cc1
37 | 591 s | O=C(Cc1cccs1)N1CCCn2nc(-c3ccncc3)cc2C1
38 | 936 s | CC(C)Cn1c(=O)c(C(=O)NC2CCCC2)nc2cccnc21
39 | 651 s | CC(NC(=O)c1ccc(-c2ccnc(N3CCCCC3)n2)cc1)c1cccnc1 (centres undefined)
40 | 747 s | Cn1cccc1C(=O)N1CCN(c2cc(-c3ccccc3)[nH]n2)CC1

The remaining lines, values behind:

Row | SMILES | RP-LC retention time
41 | O=C(CN1C(=O)CSc2ccc(C(=O)N3CCCCC3)cc21)NC1CCCCCC1 | 839 s
42 | CCNCc1ccc(-c2cc(Cl)ccc2Cl)o1 | 686 s
43 | NC(=O)Nc1ccc(Nc2ccccc2)cc1 | 752 s
44 | CC1CCN(c2cc(-n3cnc(C(=O)Nc4ccc5c(c4)OCO5)c3)ncn2)CC1 | 1060 s
45 | O=S(=O)(C1CC1)N1CCC(c2nc(-c3ccncc3)no2)C1 (centres undefined) | 670 s
46 | COc1ccc(CC(=O)Nc2cccc(-c3cn4cccnc4n3)c2)cc1 | 610 s
47 | Cc1cccc(N2C(=O)CN(CCc3ccc(F)cc3)[C@H]3CS(=O)(=O)C[C@H]32)c1 | 839 s
48 | COCC(=O)Nc1ccc2nc(-c3ccc(F)cc3)cc(OCC(=O)OC)c2c1 | 682 s
49 | COc1ccc(-c2noc(-c3nn(-c4ccc(OC)cc4)ccc3=O)n2)cc1 | 827 s
50 | CC(C)c1nccn1C1CN(S(=O)(=O)c2cccc(F)c2)C1 | 640 s
51 | COc1cc2c(cc1CNC(=O)COc1ccc(Br)cc1)OCCCO2 | 957 s
52 | COc1ccc(-n2ccnc(NC(=O)Nc3cccc(F)c3)c2=O)cc1OC | 882 s
53 | COc1ccc(-c2nc3ncccn3c2Nc2cccc(C)c2)cc1 | 743 s
54 | O=C(Nc1ccc(F)c(Cl)c1)N1CCCC1c1nc(-c2ccc(F)cc2F)no1 (centres undefined) | 1070 s
55 | CC12CC(NC(=O)N1c1cccc(C(=O)Nc3ccc4c(c3)OCCO4)c1)c1ccccc1O2 (centres undefined) | 830 s
56 | CCN1C(=O)S/C(=C\C(=O)O)C1=O | 638 s
57 | O=C(Cc1ccc(F)cc1)NCCOc1cccc(C(F)(F)F)c1 | 880 s
58 | Cc1ccc(S(=O)(=O)c2cnc(N3CCC4(CC3)OCCO4)nc2N)cc1C | 900 s
59 | CO[C@@H]1C=C2CCN(C)[C@@H]2C2c3cc4c(cc3C(=O)O[C@H]21)OCO4 (some centres undefined) | 636 s
60 | CC(C)Cn1cc(CCNS(=O)(=O)c2ccc(Cl)cc2)c2cccnc21 | 993 s
61 | COc1cc(CNC(=O)c2nc(CCS(=O)(=O)c3ccc(C)cc3)no2)cc(OC)c1OC | 825 s
62 | CCCN(CC1CCOC1)C(=O)Nc1ccccc1C (centres undefined) | 768 s
63 | O=C(CC1CCCN(c2cnn(CC3CC3)c(=O)c2)C1)N1CCC2(CC1)OCCO2 (centres undefined) | 706 s
64 | CC(C)c1nc2nccc(-c3ccc(F)cc3)n2n1 | 831 s
65 | CCN(CC)Cc1cc2[nH]c3c4ccc(Cl)cc4ncc3c2cc1OC | 747 s

Row | SMILES | RP-LC retention time
66 | COCCc1noc(C2CN(C(=O)c3cnc(C)cn3)C2)n1 | 636 s
67 | COc1ccc(-c2noc(C3CCCN3C(=O)Nc3ccc4c(c3)OCO4)n2)cc1 (centres undefined) | 884 s
68 | CCOc1ccc(/C=C/C(=O)Nc2nc(-c3ccc4c(c3)NC(=O)C(C)O4)cs2)cc1OC (centres undefined) | 927 s
69 | Cc1c2c(nn1-c1ccc(SCc3ccc(F)cc3)nn1)CCC2 | 1280 s
70 | Cc1cccc(C(=O)Nc2nc(-c3ccc4c(c3)NC(=O)CO4)c(C)s2)c1 | 918 s
71 | CCn1c(=O)oc2cc(-c3noc(-c4cc(C)cc(C)c4)n3)ccc21 | 1300 s
72 | CC(C)COc1cc(=O)n2c(c1C(=O)NC1CCN(C)CC1)CCCCC2 | 571 s
73 | Cc1ccc(-n2cc3c(N4CCCC(C(=O)NCc5ccc(Cl)cc5)C4)ncnc3n2)cc1 (centres undefined) | 750 s
74 | COc1ccc(-n2ccc(=O)c(-c3nc(-c4ccc(F)c(Cl)c4)no3)n2)cc1 | 966 s
75 | CN1C(=O)c2cc(S(=O)(=O)NCc3ccc(F)cc3)ccc2Oc2cccnc21 | 951 s
76 | COc1ccc(-n2c(=O)c(C(=O)Nc3cccc(Cl)c3)c(O)c3cccnc32)cc1 | 1370 s
77 | CCn1c(=O)c(Nc2ccc(C)c(Cl)c2)nc2ccncc21 | 649 s
78 | COc1ccccc1-c1noc(Cn2c(=O)n(Cc3ccc(F)cc3)c(=O)c3sccc32)n1 | 1020 s
79 | O=C(CC1CCCC1)N1[C@H]2CC[C@@H]1c1cnc(-c3ccccc3)nc1C2 | 1000 s
80 | COc1ccc(Cl)cc1NC(=O)C1CC(=O)N(c2ccc3c(c2)CCN3C(C)=O)C1 (centres undefined) | 774 s
81 | COc1ccc(NC(=O)Cn2c(=O)n(-c3ccccc3)c(=O)c3c2cc(C)n3C)c(OC)c1 | 791 s
82 | COc1cc(OC)c(NC(=O)Cn2ccn3nc(-c4ccccc4)c(CO)c3c2=O)cc1Cl | 849 s
83 | Cc1ccc(NS(=O)(=O)c2cc3c(=O)n(C)ncn3c2)cc1C | 849 s
84 | O=C(Nc1ccnc2ccc(Cl)cc12)c1ccc(S(=O)(=O)NC2CC2)cc1 | 656 s
85 | COc1ccc(Cl)cc1NC(=O)Cn1c2c(c(=O)n(C3CCCCC3)c1=O)CCC2 | 997 s
86 | O=C(Nc1ccc2c(c1)OCO2)Nc1cccn2c(C3CCC3)nnc12 | 801 s
87 | O=C(C1CCC1)N1CCC(n2cnnc2C2CC2)CC1 | 598 s
88 | CCCc1cc(SCC(=O)Nc2nccs2)ncn1 | 692 s
89 | Cc1cc(NS(=O)(=O)c2cc(-c3nc(C(C)(C)C)cs3)cs2)ccc1F | 1220 s
